Measured values reported in PMC6943437, “Coupling the Antimalarial Cell Penetrating Peptide TP10 to Classical Antimalarial Drugs Primaquine and Chloroquine Produces Strongly Hemolytic Conjugates” (Molecules, 2019).
pIC50: −log10 of the molar value. *1 amine or outer side, *2 acyl side, *3 side chain or, on linkers, in order; H or OH if unused. Where a SMILES comes first, the peptide text is derived from it. Where no end group is shown, it is not given here. The star is where a group is joined. NH(CH2)4NH(7-Cl-4-quinolyl) = Clc1ccc2c(NCCCCN*)ccnc2c1; Suc = O=C(CCC(=O)[*:2])[*:1]

system: P. falciparum W2; format: cell-based; settings: P. falciparum W2 (CQ-resistant), 48 h, n = 3
Procedure: All conjugates and their respective parent CPP (Table 1), were screened in vitro for their antiplasmodial activity, using the CQ-resistant P. falciparum W2 strain. The primaquine analogue to 5a, i.e., conjugate 3 where the CPP is TP10, PQ-C4-TP10 (3a), was also included in the study for comparison.
Synchronized ring-stage P. falciparum parasites (W2 strain) were incubated with test compounds for 48 h in Roswell Park Memorial Institute (RPMI) 1640 medium containing 10% human serum or 0.5% Albumax serum substitute. Parasites were then fixed with 1% formaldehyde in phosphate-buffered saline (PBS), pH 7.4, for […] at RT and labeled with YOYO-1 (1 nM; molecular probes) in 0.1% Triton X-100 in PBS. Parasitemias were determined by flow cytometry, from dot plots (forward scatter versus fluorescence). For 50% inhibitory concentration (IC50) determinations, dose-response studies were performed, with the values normalized to percent control activity, and IC50s were calculated using GraphPad Prism, with data fitted by nonlinear regression.

First: CC[C@H](C)[C@H](NC(=O)[C@H](CC(C)C)NC(=O)[C@H](Cc1ccccc1)NC(=O)[C@H](Cc1ccccc1)NC(=O)CCC(=O)NCCCCNc1ccnc2cc(Cl)ccc12)C(=O)N1CCC[C@H]1C(=O)N[C@@H](CCCCN)C(=O)NCC(=O)NCC(=O)N[C@@H](CCCNC(=N)N)C(=O)N[C@@H](CCCCN)C(=O)N[C@@H](CCCCN)C(=O)N[C@@H](CCCNC(=N)N)C(=O)N[C@@H](CCCNC(=N)N)C(=O)N[C@@H](CCC(N)=O)C(=O)N[C@@H](CCCNC(=N)N)C(=O)N[C@@H](CCCNC(=N)N)C(=O)N[C@@H](CCCNC(=N)N)C(=O)N1CCC[C@H]1C(=O)N1CCC[C@H]1C(=O)N[C@@H](CCC(N)=O)C(N)=O [5g] ({NH(CH2)4NH(7-Cl-4-quinolyl)-Suc}-FFLIPKGGRKKRRQRRRPPQ-NH2)
Second: CC[C@H](C)[C@H](NC(=O)[C@H](CCCCN)NC(=O)[C@@H](NC(=O)[C@H](CCC(=O)O)NC(=O)[C@H](CCCNC(=N)N)NC(=O)[C@H](CCCCN)NC(=O)[C@@H](NC(=O)[C@H](CCCCN)NC(=O)[C@H](CCCCN)NC(=O)[C@H](CCCCN)NC(=O)[C@H](CCCCN)NC(=O)[C@@H](NC(=O)CCC(=O)NCCCCNc1ccnc2cc(Cl)ccc12)C(C)C)[C@@H](C)CC)[C@@H](C)CC)C(N)=O [5c] ({NH(CH2)4NH(7-Cl-4-quinolyl)-Suc}-VKKKKIKREIKI-NH2)
The pIC50 of the first is higher: 5.07 for the first, < 5.00 for the second. The first is the more potent here.

`CC[C@H](C)[C@H](NC(=O)[C@H](CCCCN)NC(=O)[C@@H](NC(=O)[C@H](CCC(N)=O)NC(=O)[C@@H](N)CCCNC(=N)N)[C@@H](C)CC)C(=O)N[C@@H](Cc1c[nH]c2ccccc12)C(=O)N[C@@H](Cc1ccccc1)C(=O)N[C@@H](CCC(N)=O)C(=O)N[C@@H](CC(N)=O)C(=O)N[C@@H](CCCNC(=N)N)C(=O)N[C@@H](CCCNC(=N)N)C(=O)N[C@@H](CCSC)C(=O)N[C@@H](CCCCN)C(=O)N[C@@H](Cc1c[nH]c2ccccc12)C(=O)N[C@@H](CCCCN)C(=O)N[C@@H](CCCCN)C(N)=O` [Penetratin] and VRLIVAVRIWRR-NH2 [IDR-1018] cannot be ordered by pIC50: < 5.00 for the first, < 5.00 for the second.

`CC[C@H](C)[C@H](NC(=O)[C@H](CCCCN)NC(=O)[C@@H](NC(=O)[C@H](CCC(N)=O)NC(=O)[C@H](CCCNC(=N)N)NC(=O)CCC(=O)NCCCCNc1ccnc2cc(Cl)ccc12)[C@@H](C)CC)C(=O)N[C@@H](Cc1c[nH]c2ccccc12)C(=O)N[C@@H](Cc1ccccc1)C(=O)N[C@@H](CCC(N)=O)C(=O)N[C@@H](CC(N)=O)C(=O)N[C@@H](CCCNC(=N)N)C(=O)N[C@@H](CCCNC(=N)N)C(=O)N[C@@H](CCSC)C(=O)N[C@@H](CCCCN)C(=O)N[C@@H](Cc1c[nH]c2ccccc12)C(=O)N[C@@H](CCCCN)C(=O)N[C@@H](CCCCN)C(N)=O` [5i] and `N=C(N)NCCC[C@H](NC(=O)CNC(=O)CCC(=O)NCCCCNc1ccnc2cc(Cl)ccc12)C(=O)N[C@@H](CCCCN)C(=O)N[C@@H](CCCCN)C(=O)N[C@@H](CCCNC(=N)N)C(=O)N[C@@H](CCCNC(=N)N)C(=O)N[C@@H](CCC(N)=O)C(=O)N[C@@H](CCCNC(=N)N)C(=O)N[C@@H](CCCNC(=N)N)C(=O)N[C@@H](CCCNC(=N)N)C(=O)N1CCC[C@H]1C(=O)N1CCC[C@H]1C(=O)N[C@@H](CCC(N)=O)C(N)=O` [5f] cannot be ordered by pIC50: < 5.00 for the first, < 5.00 for the second.

H-FFLIPKGGRKKRRQRRRPPQ-NH2 [PasTAT] and `N=C(N)NCCC[C@H](NC(=O)[C@H](CCCNC(=N)N)NC(=O)[C@H](CCCNC(=N)N)NC(=O)[C@H](CCCNC(=N)N)NC(=O)[C@H](CCCNC(=N)N)NC(=O)[C@H](CCCNC(=N)N)NC(=O)[C@H](CCCNC(=N)N)NC(=O)[C@H](CCCNC(=N)N)NC(=O)[C@@H](N)CCCNC(=N)N)C(N)=O` [R9] cannot be ordered by pIC50: < 5.00 for the first, < 5.00 for the second.

H-VKKKKIKREIKI-NH2 [DPT-sh1] was tested, and the pIC50 was < 5.00.
